One data set deals with COLO 205. Put plainly: Antiproliferative activity against human COLO205 cells after 96 hrs by celltiter assay. The format is functional, cell-based. The following applies: COLO 205, 96 h.
A further data set concerns the target Histone deacetylase 1 (Homo sapiens, UniProt Q13547).
Data set [1] is described as follows: in vitro. The conditions noted are these: human, liver microsomes.
For data set [2] the following is noted: mouse, microsomes.
Description: (§1) Metabolic stability in mouse liver microsomes assessed as half life
In another data set the test system is A2780. The data set is described as follows: Antiproliferative activity against human A2780 cells after 96 hrs by celltiter assay. The class given is functional, cell-based. The conditions noted are these: A2780, 96 h.
For a further data set, the system named is PC-3. Put plainly: Antiproliferative activity against human PC3 cells after 96 hrs by celltiter assay. The format is functional, cell-based. The conditions noted are these: PC-3, 96 h.
The subject of data set [3] is HCT-116. The data set is described as follows: Antiproliferative activity against human HCT116 cells after 96 hrs by celltiter assay. The following applies: HCT-116, 96 h. The format is functional, cell-based.
Data set [4] can be described thus: in vitro. The following applies: mouse, liver microsomes. In general terms: Liver microsomes are a subcellular fraction often used to study metabolism.
Description: as §1
Data set [5] concerns HCT-116. The data set is described as follows: Antitumor activity against human HCT116 cells xenografted in athymic mouse assessed as tumor growth inhibition at 100 mg/kg, ip qd for 21 days measured on day 11. The class given is functional. The following applies: HCT-116, ip, route intraperitoneal, read-out: TGI. Background: A xenograft is tissue or cells of one species grown in another, often human tumour cells in immunodeficient mice.

The test system of data set [6] is Mus musculus. Put plainly: Toxicity in athymic mouse xenografted with human HCT116 cells at 100 mg/kg, ip qd for 21 days measured on day 12. The format is organism-based, HCT-116. The following applies: in vivo, 504 h. Also on record: dose 100 mg/kg, route intraperitoneal.
Data set [7] can be described thus: Toxicity in ip dosed athymic mouse assessed as maximum tolerated dose. The format is organism-based. The conditions noted are these: in vivo.
Data set [8] concerns HCT-116. Put plainly: Induction of histone H3 hyperacetylation in human HCT116 cells. The class given is functional, cell-based.
Data set [9] deals with Mus musculus. The data set is described as follows: Induction of histone H3 hyperacetylation in human HCT116 cells xenografted athymic mouse. The following applies: HCT-116. The format is functional, organism-based.
The subject of data set [10] is HCT-116. The data set is described as follows: Antitumor activity against human HCT116 cells xenografted in athymic mouse assessed as tumor growth inhibition at 50 mg/kg, ip qd for 21 days measured on day 21. The format is functional. The following applies: HCT-116, ip, 504 h, route intraperitoneal, read-out: TGI.
The test system of data set [11] is HCT-116. Put plainly: Antitumor activity against human HCT116 cells xenografted in athymic mouse assessed as tumor growth inhibition at 75 mg/kg, ip qd for 21 days measured on day 21. The following applies: HCT-116, ip, 504 h, route intraperitoneal, read-out: TGI. The format is functional.
The subject of data set [12] is HCT-116. Put plainly: Antitumor activity against human HCT116 cells xenografted in athymic mouse assessed as tumor growth inhibition at 60 mg/kg, ip qd for 21 days measured on day 22. The following applies: HCT-116, ip, route intraperitoneal, read-out: TGI. The class given is functional.

Structures are written as SMILES. Activity calls are given as the source filed them. The rule behind the calls is not given here. Where only a bound is given, the exact number is not on record here.

Usually IC50 stands for the concentration needed to halve the response being measured. Low readings indicate greater potency in that assay, high ones weaker potency in that assay. As usually defined, the half-life is the time in which the quantity being followed falls by half. A high value points to slow loss. As a reminder, the MTD is the highest dose tested that stayed within the study's limit of toxicity.

Histone deacetylase 1, sequence (Q13547 whole entry): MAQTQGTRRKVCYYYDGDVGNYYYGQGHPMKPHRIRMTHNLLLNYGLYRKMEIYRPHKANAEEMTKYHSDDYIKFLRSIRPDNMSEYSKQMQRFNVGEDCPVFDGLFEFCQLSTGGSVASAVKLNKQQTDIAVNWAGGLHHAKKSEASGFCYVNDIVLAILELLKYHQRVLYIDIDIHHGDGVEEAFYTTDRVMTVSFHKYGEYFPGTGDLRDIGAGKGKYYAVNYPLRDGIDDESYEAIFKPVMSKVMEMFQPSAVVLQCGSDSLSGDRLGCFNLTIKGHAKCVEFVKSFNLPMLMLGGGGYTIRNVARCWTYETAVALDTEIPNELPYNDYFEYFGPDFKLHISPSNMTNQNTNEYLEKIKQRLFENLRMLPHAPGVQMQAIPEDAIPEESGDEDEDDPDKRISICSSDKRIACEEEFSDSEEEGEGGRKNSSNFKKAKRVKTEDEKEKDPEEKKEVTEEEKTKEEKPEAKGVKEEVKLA
Description for Histone deacetylase 1: Inhibition of recombinant HDAC1 by fluorimetric assay

Regarding `O=C(/C=C/c1ccc2c(c1)nc(CCc1ccccc1)n2Cc1ccccn1)NO`, the 50% inhibitory concentration (IC50) stood at 880 nM with COLO 205 and 250 nM against Histone deacetylase 1.
For the compound `O=C(/C=C/c1ccc2c(c1)nc(CCc1ccccc1)n2Cc1ccccc1)NO`, the half-inhibitory concentration (IC50) in the data set with COLO 205 was found to be 1600 nM; on Histone deacetylase 1, 410 nM.
In the data set on COLO 205, `O=C(/C=C/c1ccc2c(c1)nc(-c1ccsc1)n2CCCO)NO` had a concentration for half-maximal inhibition (IC50) of 31000 nM.
`CN(C)CC(C)(C)Cn1c(CCc2ccccc2)nc2cc(/C=C/C(=O)NO)ccc21.Cl.Cl` registered a half-life in the data set “in vitro [1]” of 12 min. In [2], this compound registered a t1/2 of 1 min. The IC50 in the data set with A2780 amounted to 110 nM; in the data set on PC-3, 180 nM; in the data set on HCT-116 [3], 160 nM.
Turning to `CN(C)CCCCn1c(CCc2ccccc2)nc2cc(/C=C/C(=O)NO)ccc21`, the concentration for half-maximal inhibition (IC50) in the data set with COLO 205 was determined as 1100 nM; on Histone deacetylase 1 it was 160 nM.
Compound `O=C(/C=C/c1ccc2c(c1)nc(CCc1ccccc1)n2CCCn1ccnc1)NO` showed a concentration for half-maximal inhibition (IC50) in the data set on COLO 205 of over 100000 nM.
As to `Cl.Cl.O=C(/C=C/c1ccc2c(c1)nc(CCc1ccccc1)n2CCN1CCCC1)NO`, the values for the half-life in “in vitro [1]” and in the data set “in vitro [4]” were over 30 min and 2.7 min, respectively. Also, the IC50 was determined as 190 nM with A2780, 150 nM in the data set with PC-3 and 200 nM in the data set with HCT-116 [3].
For the compound `Cn1c(CCc2ccccc2)nc2cc(C3CC3C(=O)NO)ccc21` (centres undefined), on Histone deacetylase 1, the half-inhibitory concentration (IC50) amounted to 1300 nM.
Consider `CN(C)CCCn1c(CCc2ccccc2)nc2cc(/C=C/C(=O)NO)ccc21`, for which the figures for the 50% inhibitory concentration (IC50) in the data set on COLO 205 and at Histone deacetylase 1 were 2000 nM and 190 nM, respectively.
Turning to `O=C(NO)c1ccc2c(c1)nc(CCc1ccccc1)n2CCCO`, the half-inhibitory concentration (IC50) with COLO 205 turned out to be 26000 nM.
Take `O=C(/C=C/c1ccc2c(c1)nc(CCc1ccccc1)n2CCCN1CCOCC1)NO`: in the data set with COLO 205, it took 1900 nM to reach half-maximal inhibition (IC50).
Turning to `O=C(O)CCn1c(CCc2ccccc2)nc2cc(/C=C/C(=O)NO)ccc21`, it took 2300 nM to reach half-maximal inhibition against Histone deacetylase 1 (IC50).
`CC(C)Cc1nc2cc(/C=C/C(=O)NO)ccc2n1CCCO`: the IC50 with COLO 205 was 26000 nM; at Histone deacetylase 1, 100 nM.
In the data set on COLO 205, `COCCCn1c(CCc2ccccc2)nc2cc(/C=C/C(=O)NO)ccc21` showed an IC50 of 2200 nM.
In the data set with COLO 205, `O=C(/C=C/c1ccc2c(c1)nc(CCc1ccccc1)n2CCN1CCOCC1)NO` had a half-maximal inhibitory concentration (IC50) of 2800 nM.
Turning to `CN(C)CC(C)(C)Cn1c(CCc2ccccc2)nc2cc(/C=C/C(=O)NO)ccc21`, the figures for the IC50 in the data set with COLO 205 and against Histone deacetylase 1 were 120 nM and 41 nM, respectively. Further, the inhibition in vivo at 100 mg/kg in the data set on HCT-116 [5] turned out to be 60%. In addition, the Activity entry in the data set on Mus musculus [6] is reported as “Toxic”.
Consider `Cl.Cl.O=C(/C=C/c1ccc2c(c1)nc(CCc1ccccc1)n2CCN1CCCCC1)NO`, for which the half-life in “in vitro [1]” was determined as 10 min. The compound also registered a t1/2 in data set [2] of 1.3 min. Further, the IC50 with A2780 turned out to be 31 nM; in the data set on PC-3, 120 nM; in the data set with HCT-116 [3], 100 nM.
Take `O=C(/C=C/c1ccc2c(c1)nc(CCc1ccccc1)n2CCCO)NO`: the midpoint of inhibition in the data set with COLO 205, the IC50, lay at 3200 nM.
With `CC(Cc1nc2cc(/C=C/C(=O)NO)ccc2n1CCCO)c1ccccc1` (centres undefined), the figures for the half-inhibitory concentration (IC50) in the data set on COLO 205 and against Histone deacetylase 1 were 1700 nM and 80 nM, respectively.
In turn, `O=C(/C=C/c1ccc2c(c1)nc(CCc1ccccc1)n2CCCN1CCCC1=O)NO` returned an IC50 with COLO 205 of 11000 nM.
For `COc1cc(Cn2c(CCc3ccccc3)nc3cc(CCC(=O)NO)ccc32)cc(OC)c1OC`, the IC50 in the data set on COLO 205 was found to be 2400 nM.
Turning to `Nc1ccccc1NC(=O)/C=C/c1ccc2c(c1)nc(CCc1ccccc1)n2Cc1ccccn1`, the IC50 with COLO 205 is 5100 nM; on Histone deacetylase 1 it was over 100000 nM.
Turning to `CCCn1c(CCc2ccccc2)nc2cc(/C=C/C(=O)NO)ccc21`, the half-inhibitory concentration (IC50) in the data set on COLO 205 turned out to be 2300 nM; on Histone deacetylase 1 it was 170 nM.
For `O=C(/C=C/c1ccc2nc(CCc3ccccc3)[nH]c2c1)NO`, in that order: 4400 nM and 170 nM.
Take `CC(C)Cc1nc2cc(CCC(=O)NO)ccc2n1CCCO`: the IC50 against Histone deacetylase 1 is over 10000 nM.
In the data set on COLO 205, `O=C(/C=C/c1ccc2c(c1)nc(CCc1ccccc1)n2CCc1ccccc1)NO` yielded an IC50 of 8800 nM.
Take `COc1cc(Cn2c(CCc3ccccc3)nc3cc(/C=C/C(=O)NO)ccc32)cc(OC)c1OC`: the IC50 with COLO 205 is 320 nM; against Histone deacetylase 1 it was 47 nM.
The compound `O=C(/C=C/c1ccc2c(c1)nc(C1CCCCC1)n2CCCO)NO` yielded an IC50 in the data set on COLO 205 of 31000 nM.
On to `O=C(CCCCCCC(=O)Nc1ccccc1)NO` [VORINOSTAT], for which the MTD in data set [7] came out at 200 mg/kg.
Consider `CCn1c(CCc2ccccc2)nc2cc(/C=C/C(=O)NO)ccc21`, for which the concentration for half-maximal inhibition (IC50) in the data set on COLO 205 turned out to be 1500 nM.
For `O=C(/C=C/c1ccc2c(c1)nc(CCc1ccccc1)n2CCCN1CCCC1)NO`, the IC50 in the data set with COLO 205 is 610 nM; against Histone deacetylase 1, 310 nM.
Take `CCCCCCCCc1nc2cc(/C=C/C(=O)NO)ccc2n1CCCO`: it took 3700 nM to reach half-maximal inhibition with COLO 205 (IC50).
On to `O=C(/C=C/c1ccc2nc(CCc3ccccc3)n(Cc3ccccc3)c2c1)NO`, for which the IC50 came out at 5400 nM with COLO 205 and 1200 nM on Histone deacetylase 1.
For the compound `O=C(/C=C/c1ccc2c(c1)nc(CCc1ccccc1)n2CCN1CCCC1)NO`, the result with HCT-116 [8] and in the data set on Mus musculus [9] was Active.
`Cn1c(CCc2ccccc2)nc2cc(/C=C/C(=O)NO)ccc21` showed a half-maximal inhibitory concentration (IC50) with COLO 205 of 1200 nM. For the same compound, the MTD in data set [7] is 50 mg/kg. The inhibition in vivo at 50 mg/kg in the data set with HCT-116 [10] turned out to be 23%.
For the compound `Cl.Cn1c(CCc2ccccc2)nc2cc(/C=C/C(=O)NO)ccc21`, the figures for the half-life in the data set “in vitro [1]” and in “in vitro [4]” were over 30 min and 23 min, respectively. Further, the IC50 was 730 nM in the data set with A2780, 890 nM with PC-3 and 1300 nM with HCT-116 [3].
As for `O=C(/C=C/c1ccc2c(c1)nc(COCc1ccccc1)n2CCCO)NO`, the 50% inhibitory concentration (IC50) in the data set on COLO 205 stood at 4100 nM.
With `CCN(CC)CCn1c(CCc2ccccc2)nc2cc(/C=C/C(=O)NO)ccc21.Cl.Cl`, the half-life in the data set “in vitro [1]” was found to be 16 min; in the data set “in vitro [4]” it was 2.8 min. Besides, the figures for the IC50 in the data set with A2780, in the data set on PC-3 and with HCT-116 [3] were 100 nM, 200 nM and 240 nM, respectively.
Regarding `O=C(/C=C/c1ccc2c(c1)nc(CCc1ccccc1)n2CCN1CCCCC1)NO`, the IC50 in the data set on COLO 205 amounted to 90 nM; at Histone deacetylase 1, 26 nM. Also, the MTD in data set [7] worked out at 75 mg/kg. In addition, the inhibition in vivo at 75 mg/kg in the data set with HCT-116 [11] came out at 32%.
Take `CCN(CC)CCn1c(CCc2ccccc2)nc2cc(/C=C/C(=O)NO)ccc21`: the IC50 in the data set on COLO 205 amounted to 220 nM; against Histone deacetylase 1, 52 nM. The inhibition in vivo at 60 mg/kg in the data set with HCT-116 [12] came out at 12%. In addition, the maximal tolerated dose (MTD) in data set [7] was 60 mg/kg.

Source of the values: ChEMBL document CHEMBL1152878, “N-Hydroxy-1,2-disubstituted-1H-benzimidazol-5-yl acrylamides as novel histone deacetylase inhibitors: design, synthesis, SAR studies, and in vivo antitumor activity” (Bioorg Med Chem Lett, 2009).
